Reference: patent US20080021034A1, “Compositions and methods for modulating gated ion channels” (PainCeptor Pharma Corporation, priority 2006, published 2008)

test system: proton-gated ion channels (ASIC); assay: Two-electrode voltage clamp in Xenopus laevis oocytes expressing gated ion channels (Xo); type: cell-based; settings: acidic solution (pH<7) activation
Description: Two-electrode voltage clamp electrophysiological assays in Xenopus laevis oocytes expressing gated ion channels are performed as follows:
Oocytes are surgically removed from adult Xenopus laevis and treated for 2 h at room temperature with 1 mg/ml type I collagenase (Sigma) in Barth's solution under mild agitation. Selected oocytes at stage IV-V are defolliculated manually before nuclear microinjection of 2.5-5 ng of a suitable expression vector, such as pCDNA3, comprising the nucleotide sequence encoding a gated ion channel subunit protein. In such an experiment, the oocytes express homomultimeric proton-gated ion channels on their surface. In an alternate experiment, one, two, three or more vectors comprising the coding sequences for distinct gated ion channel subunits are co-injected in the oocyte nuclei. In the latter case, oocytes express heteromultimeric proton-gated ion channels. For example, ASIC2a and/or ASIC3 subunits in pcDNA3 vector are co-injected at a 1:1 cDNA ratio. After 2-4 days of expression at 19° C. in Barth's solution containing […] gentamicin and 1.8 mM CaCl2, gated ion channels are activated by applying an acidic solution (pH<7) and currents are recorded in a two electrode voltage-clamp configuration, using an OC-725B amplifier (Warner Instruments). Currents are acquired and digitized at 500 Hz on an Apple Imac G3 computer with an A/D NB-MIO-16XL interface (National Instruments) and recorded traces are post-filtered at 100 Hz in Axograph (Axon Instruments) (Neher, E. and Sakmann, B. (1976) Nature 260:799-802). Once impaled with the microelectrodes, oocytes are continuously superfused at 10-12 ml/min with a modified Ringer's solution containing 97 mM NaCl, 2 mM KCl, 1.8 mM CaCl2, and 10 mM HEPES brought to pH 7.4 with NaOH (Control Ringer). Test Ringer solution is prepared by replacing HEPES with MES and adjusting the pH to the desired acidic value. Compounds of the present invention are prepared in both the Control and Test Ringer solutions and applied to oocytes at room temperature through a computer-controlled switching valve system. Osmolarity of all solutions is adjusted to 235 mOsm with choline chloride. Similarly, recordings can also be acquired in an automated multichannel oocytes system as the OpusExpress™ (Molecular Devices, Sunnyvale, USA).

Compound	percent effect on acid-evoked current (two-electrode voltage clamp) [%]	Xo: percent binding data [%]
CCOC(=O)N1CC(c2ccccc2)=C2CCN(C)CC2N1C(=O)OCC (stereo not shown) [Compound 1]	< 20	–
CCOC(=O)N1CC(c2ccccc2)=C2CCN(C(=O)OC(C)(C)C)C[C@@H]2N1C(=O)OCC [Compound 2]	< 20	–
CCOC(=O)N1NCC(c2ccccc2)=C2CCN(C)CC21 (stereo not shown) [Compound 3]	< 20	–
N#CC1=CCC(c2ccccc2)=C2CCNCC12 (stereo not shown) [Compound 4]	< 20	–
CC(C)(C)OC(=O)N1CCC2=C(c3ccccc3)CC=C(C#N)C2C1 (stereo not shown) [Compound 5]	< 20	–
COC(=O)C1=C(C(=O)OC)C2CN(C(=O)OC(C)(C)C)CCC2=C(c2ccccc2)C1 (stereo not shown) [Compound 6]	< 20	–
CN1CCC2=C(c3ccccc3)CC=C(C#N)[C@H]2C1 [Compound 7]	< 20	–
COC(=O)C1=CCC(c2ccccc2)=C2CCN(C(=O)OC(C)(C)C)CC12 (stereo not shown) [Compound 8]	< 20	–
CN1CCC2=C(c3ccccc3)CCC(C(=O)O)C2C1 (stereo not shown) [Compound 9]	< 20	–
CCOC(=O)C1CCC(c2ccccc2)=C2CCN(C)CC21 (stereo not shown) [Compound 10]	< 20	–
CN1CCC2=C(c3ccccc3)CCC(C(=O)OCCO)C2C1 (stereo not shown) [Compound 11]	< 20	–
CN1CCC2=C(c3ccccc3)CCC(C(=O)Nc3cccc(Cl)c3)C2C1 (stereo not shown) [Compound 12]	< 20	–
CN1CCC2=C(c3ccccc3)CCC(C(=O)Nc3ccc(Cl)cc3)C2C1 (stereo not shown) [Compound 13]	< 20	–
CN1CCC2=C(c3ccccc3)CC[C@@H](C(=O)Nc3ccccc3Cl)C2C1 (stereo partly shown) [Compound 14]	< 20	–
C#CCNC(=O)[C@@H]1CCC(c2ccccc2)=C2CCN(C)CC21 (stereo partly shown) [Compound 15]	< 20	–
CN1CCC2=C(c3ccccc3)CC[C@@H](C(=O)N(C)C)C2C1 (stereo partly shown) [Compound 16]	< 20	–
CN1CCC2=C(c3ccccc3)CC[C@@H](C(=O)Nc3ccccc3)C2C1 (stereo partly shown) [Compound 17]	< 20	–
CN1CCC2=C(c3ccccc3)CC[C@@H](C(=O)Nc3ccccn3)C2C1 (stereo partly shown) [Compound 18]	< 20	–
CN1CCC2=C(c3ccccc3)CC[C@@H](C(=O)Nc3cccnc3)C2C1 (stereo partly shown) [Compound 19]	< 20	–
CN1CCC2=C(c3ccccc3)CC[C@@H](C(=O)NCCO)C2C1 (stereo partly shown) [Compound 20]	< 20	–
CN1CCC2=C(c3ccccc3)CC[C@@H](C(=O)NCc3ccccc3)[C@H]2C1 [Compound 21]	< 20	–
CN1CCC2=C(c3ccccc3)CC[C@@H](C(=O)N3CCNCC3)[C@H]2C1 [Compound 22]	< 20	–
CN1CCC2=C(c3ccccc3)CC[C@@H]([N+](=O)[O-])[C@H]2C1 [Compound 23]	< 20	–
CC(=O)N[C@@H]1CCC(c2ccccc2)=C2CCN(C)C[C@@H]21 [Compound 24]	< 20	–
CN1CCC2=C(c3ccccc3)CC[C@@H](NC(=O)c3ccccc3)[C@H]2C1 [Compound 25]	< 20	–
CN1CCC2=C(c3ccccc3)CCC(N)C2C1 (stereo not shown) [Compound 26]	< 20	–
CN1CCC2=C(c3ccccc3)CCC(NC(=O)c3cccc(/C=N/O)c3)[C@H]2C1 (stereo partly shown) [Compound 27]	< 20	–
CN1CCC2=C(c3ccccc3)CCC(NC(=O)c3ccc(/C=N/O)cc3)[C@H]2C1 (stereo partly shown) [Compound 28]	< 20	–

Compound	percent effect on acid-evoked current (two-electrode voltage clamp) [%]	Xo: percent binding data [%]
CN1CCC2=C(c3ccccc3)CC[C@@H](NC(=O)c3ccc(O)cc3)[C@H]2C1 [Compound 29]	–	< 20
CN1CCC2=C(c3ccccc3)CCC(NC(=O)c3cccc(O)c3)C2C1 (stereo not shown) [Compound 30]	< 20	–
CC(C)(C)OC(=O)N1CCC2=C(c3ccccc3)CC[C@@H]([N+](=O)[O-])[C@H]2C1 [Compound 31]	< 20	–
CN1CCC2=C(c3ccccc3)CCC(NC(=O)c3cccc(C=O)c3)C2C1 (stereo not shown) [Compound 32]	< 20	–
CN1CCC2=C(c3ccccc3)CCC(NC(=O)c3ccc(C=O)cc3)C2C1 (stereo not shown) [Compound 33]	< 20	–
CN1CCC2=C(c3ccccc3)CCC(NC(=O)c3ccccc3O)C2C1 (stereo not shown) [Compound 34]	< 20	–
CN1CCC2=C(c3ccccc3)CCC(NC(=O)c3ccc(Cl)cc3)C2C1 (stereo not shown) [Compound 35]	< 20	–
CN1CCC2=C(c3ccccc3)CCC(NC(=O)c3ccc(/C=N/O)cc3)C2C1 (stereo not shown) [Compound 36]	< 20	–
CN1CCC(O)(/C(=N\NC(=O)c2ccccc2N)c2ccccc2)CC1 [Compound 37]	< 20	–
CN1CC[C@@H]2/C(=N/Nc3ccc([N+](=O)[O-])cc3[N+](=O)[O-])c3ccccc3[C@@H]2C1 [Compound 39]	–	< 20
CN1CCC(O)(/C(=N/N)c2ccccc2)CC1 [Compound 39a]	< 20	–
CN1CC[C@@H]2C(=O)c3ccccc3[C@@H]2C1 [Compound 40]	< 20	–
CN1CC[C@@H]2/C(=N/O)c3ccccc3[C@@H]2C1 [Compound 41]	< 20	–
CN1CCC(O)(/C(=N\Nc2ccc([N+](=O)[O-])cc2[N+](=O)[O-])c2ccccc2)CC1 [Compound 42]	–	< 20
CN1CC[C@@H]2/C(=N\NC(N)=O)c3ccccc3[C@@H]2C1 [Compound 43]	< 20	–
CN1CC=C(/C(=N\Nc2ccc([N+](=O)[O-])cc2[N+](=O)[O-])c2ccccc2)CC1 [Compound 44]	–	< 20
CN1CCC(O)(/C(=N\NC(=O)c2ccc(O)cc2O)c2ccccc2)CC1 [Compound 45]	< 20	–
CN1CCC(O)(/C(=N\Nc2ccccc2)c2ccccc2)CC1 [Compound 46]	< 20	–
CN1CCC(O)(/C(=N\NC(=O)c2ccco2)c2ccccc2)CC1 [Compound 47]	< 20	–
CN1CCC(O)(/C(=N\Nc2ccccn2)c2ccccc2)CC1 [Compound 48]	< 20	–
CN1CCC(O)(/C(=N\NC(=O)c2ccccc2[N+](=O)[O-])c2ccccc2)CC1 [Compound 50]	< 20	–
CCOC(=O)c1cccnc1N/N=C(/c1ccccc1)C1(O)CCN(C)CC1 [Compound 51]	< 20	–
CN1CCC(O)(C(=NNC(N)=O)c2ccccc2)CC1 [Compound 52]	< 20	–
CN1CCC(O)(/C(=N\NC(=O)c2cccc(O)c2)c2ccccc2)CC1 [Compound 54]	< 20	–
CCOC(=O)C1=C(Nc2ccccc2)CCN(Cc2ccccc2)C1 [Compound 55]	–	<20
CN1CCC2=C(c3ccccc3)Cn3c(=O)n(C)c(=O)n3C2C1 (stereo not shown) [Compound 56]	< 20	–
CN1CCC2=C(c3ccccc3)Cn3c(=O)n(-c4ccccc4)c(=O)n3C2C1 (stereo not shown) [Compound 57]	< 20	–
